Several values for one entry are separate records, joined by “and”; a condition that tells them apart may be missing. Equal values may be shown once.
Key:
PC-3 = test: Cellular proliferation assay (Alamar blue), PC-3; type: cell-based; conditions: PC-3 cells, 72 hours with compound, 10% FCS; for IC50: Homo sapiens, PC-3, 72 h, read-out: pIC50 PC-3 (converted)
Description: (§1) […] functional properties of these compounds was tested in cellular proliferation assays on a panel of different cell lines in the presence of 10% FCS serum (37° C. and 5% (v/v) CO2). In a first step these cells were seeded and incubated for 24 hours in the absence of compound. In the second step the cells were incubated for 72 hours with the compounds to be tested for 72 hours. The viable cell number was finally assessed in a standard Alamar blue cell viability assay.
(§2) The viable cell number was assessed by incubation for either 4 h (HCT-116, H1299, H460) 6 h (SKOV3, HT29, U87-MG, Colo205) or 24 h (A2780, PC3, MDA-MB-231, A549, MCF-7) with Alamar blue (Resazurin 9 μg/ml, K-Ferrocyanide 90 μM K-Ferricyanide 90 μM) and the converted fluorescent product was quantified on a fluorescent plate readed (544 nm/590 nm). Effect of the compounds is calculated as of on control cells.

HCT-116 = test: Cellular proliferation assay (Alamar blue), HCT-116; type: cell-based; conditions: HCT-116 cells, 72 hours with compound, 10% FCS; for IC50: Homo sapiens, HCT-116, 72 h, read-out: pIC50 HCT-116 (converted)
Description: as §1, §2

PLK4 (h) = PLK4 (h) (Homo sapiens, UniProt O00444); test: PLK-4 human kinase assay (SPA); type: biochemical; conditions: for IC50: read-out: PLK4 pIC50 (converted)
Sequence of PLK4 (h) (O00444 whole entry): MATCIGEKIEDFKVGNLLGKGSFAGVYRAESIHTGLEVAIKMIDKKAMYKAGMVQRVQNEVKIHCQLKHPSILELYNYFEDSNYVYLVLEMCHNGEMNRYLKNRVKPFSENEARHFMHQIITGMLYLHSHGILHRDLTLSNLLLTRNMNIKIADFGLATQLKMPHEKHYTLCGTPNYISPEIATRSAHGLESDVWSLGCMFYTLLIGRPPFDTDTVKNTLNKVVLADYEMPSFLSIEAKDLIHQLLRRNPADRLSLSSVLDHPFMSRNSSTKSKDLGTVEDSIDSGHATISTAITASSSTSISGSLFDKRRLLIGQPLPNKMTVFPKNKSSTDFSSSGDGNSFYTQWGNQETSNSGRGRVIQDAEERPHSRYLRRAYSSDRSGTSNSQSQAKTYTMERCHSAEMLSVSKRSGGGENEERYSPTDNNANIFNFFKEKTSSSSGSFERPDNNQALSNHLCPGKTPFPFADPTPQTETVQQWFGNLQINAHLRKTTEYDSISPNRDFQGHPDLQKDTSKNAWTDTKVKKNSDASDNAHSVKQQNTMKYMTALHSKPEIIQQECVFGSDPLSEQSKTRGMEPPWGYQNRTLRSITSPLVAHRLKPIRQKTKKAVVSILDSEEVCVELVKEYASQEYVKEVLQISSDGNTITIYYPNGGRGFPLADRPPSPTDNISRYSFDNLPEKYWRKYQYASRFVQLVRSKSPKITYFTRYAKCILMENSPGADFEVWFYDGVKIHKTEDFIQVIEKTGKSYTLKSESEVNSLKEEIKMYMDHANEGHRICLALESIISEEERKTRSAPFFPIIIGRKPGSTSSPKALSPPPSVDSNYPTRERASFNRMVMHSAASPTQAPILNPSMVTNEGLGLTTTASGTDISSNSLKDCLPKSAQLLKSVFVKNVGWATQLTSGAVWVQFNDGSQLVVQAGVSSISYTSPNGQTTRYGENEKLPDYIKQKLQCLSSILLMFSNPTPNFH
In short: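 Radiometric readout: 33P-labelled peptide captured on streptavidin SPA beads after EDTA stop, imaged by Leadseeker. Reaction ran 60 min at room temperature in Hepes pH 8.0 buffer. It contained 1 μM ATP with 2 nM [γ-33P]ATP, 10 μM biotinylated peptide and PLK4 (h) at 19 μg/ml.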

U87MG = test: Cellular proliferation assay (Alamar blue), U87MG; type: cell-based; conditions: U87MG cells, 72 hours with compound, 10% FCS; for IC50: Homo sapiens, U-87 MG, 72 h, read-out: pIC50 U87MG (converted)
Description: as §1, §2

GSK3β (h) = GSK3β (h) (Homo sapiens, UniProt P49841); test: GSK-3β human kinase assay (SPA); type: biochemical; conditions: for IC50: read-out: GSK3B pIC50 (converted)
Sequence of GSK3β (h) (P49841 whole entry): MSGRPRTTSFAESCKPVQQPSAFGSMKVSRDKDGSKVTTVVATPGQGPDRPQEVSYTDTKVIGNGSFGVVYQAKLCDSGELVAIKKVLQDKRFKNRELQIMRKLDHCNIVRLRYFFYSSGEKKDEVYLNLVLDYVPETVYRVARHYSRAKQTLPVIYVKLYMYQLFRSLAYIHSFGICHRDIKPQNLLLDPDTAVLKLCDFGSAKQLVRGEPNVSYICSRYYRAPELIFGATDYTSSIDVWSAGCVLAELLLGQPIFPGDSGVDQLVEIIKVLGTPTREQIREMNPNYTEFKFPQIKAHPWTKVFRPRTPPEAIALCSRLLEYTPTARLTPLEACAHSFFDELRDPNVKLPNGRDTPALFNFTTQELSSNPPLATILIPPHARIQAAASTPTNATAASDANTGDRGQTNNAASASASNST
In short: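 Radiometric SPA read-out: after EDTA stop, biotinylated 33P-labelled peptide bound streptavidin PVT beads and was imaged on Leadseeker. Reaction: 60 min, room temperature, GSK3β (h) at 1 μg/ml, 1 μM substrate peptide, 1 μM ATP with 2 nM [γ-33P]ATP, Tris pH 7.4/MgCl2/DTT buffer.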

H1299 = test: Cellular proliferation assay (Alamar blue), H1299; type: cell-based; conditions: H1299 cells, 72 hours with compound, 10% FCS; for IC50: Homo sapiens, NCI-H1299, 72 h, read-out: pIC50 H1299 (converted)
Description: as §1, §2

A2780 = test: Cellular proliferation assay (Alamar blue), A2780; type: cell-based; conditions: A2780 cells, 72 hours with compound, 10% FCS; for IC50: Homo sapiens, A2780, 72 h, read-out: pIC50 A2780 (converted)
Description: as §1, §2

MDA/MB231 = test: Cellular proliferation assay (Alamar blue), MDA/MB231; type: cell-based; conditions: MDA/MB231 cells, 72 hours with compound, 10% FCS; for IC50: Homo sapiens, MDA-MB-231, 72 h, read-out: pIC50 MDA/MB231 (converted)
Description: as §1, §2

AuroraB (h) = AuroraB (h) (Homo sapiens, UniProt Q96GD4); test: Aurora-B human kinase assay (SPA); type: biochemical; conditions: for IC50: read-out: AuroraB pIC50 (converted)
Sequence of AuroraB (h) (Q96GD4 whole entry): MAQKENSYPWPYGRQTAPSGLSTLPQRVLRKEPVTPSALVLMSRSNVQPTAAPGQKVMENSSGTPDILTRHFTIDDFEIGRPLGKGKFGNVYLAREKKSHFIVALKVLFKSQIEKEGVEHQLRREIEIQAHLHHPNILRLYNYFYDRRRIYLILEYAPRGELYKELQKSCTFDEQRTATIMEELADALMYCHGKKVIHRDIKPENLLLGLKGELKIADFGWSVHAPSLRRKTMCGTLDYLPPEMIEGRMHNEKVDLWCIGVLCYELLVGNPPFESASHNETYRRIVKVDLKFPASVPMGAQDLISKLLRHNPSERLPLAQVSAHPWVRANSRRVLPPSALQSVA
In short: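 Scintillation proximity assay: AuroraB (h) at 0.5 μg/ml with 3 μM biotinylated peptide, 0.5 μM ATP and 2.2 nM [γ-33P]ATP in 60 mM Hepes pH 7.5, 3 mM MgCl2, 3 mM MnCl2, 2 mM DTT. 60 min at room temperature, EDTA stop, streptavidin PVT beads read on Leadseeker.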

CDK1/CyclinB (h) = CDK1/CyclinB (h) (Homo sapiens, UniProt P06493); test: CDK1/CyclinB human kinase assay (FRET); type: biochemical; conditions: for IC50: read-out: CDK1 pIC50 (converted)
Sequence of CDK1/CyclinB (h) (P06493 whole entry): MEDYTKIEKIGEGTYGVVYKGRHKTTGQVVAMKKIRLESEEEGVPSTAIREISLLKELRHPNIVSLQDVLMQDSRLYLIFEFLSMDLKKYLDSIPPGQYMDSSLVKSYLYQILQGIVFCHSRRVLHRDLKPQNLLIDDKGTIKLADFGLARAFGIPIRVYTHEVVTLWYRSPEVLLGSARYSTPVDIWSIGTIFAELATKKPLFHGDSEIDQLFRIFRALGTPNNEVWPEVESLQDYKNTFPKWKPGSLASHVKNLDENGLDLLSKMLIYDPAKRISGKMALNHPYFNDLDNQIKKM
Sequence of CDK1/CyclinB (h) (P14635 whole entry partner): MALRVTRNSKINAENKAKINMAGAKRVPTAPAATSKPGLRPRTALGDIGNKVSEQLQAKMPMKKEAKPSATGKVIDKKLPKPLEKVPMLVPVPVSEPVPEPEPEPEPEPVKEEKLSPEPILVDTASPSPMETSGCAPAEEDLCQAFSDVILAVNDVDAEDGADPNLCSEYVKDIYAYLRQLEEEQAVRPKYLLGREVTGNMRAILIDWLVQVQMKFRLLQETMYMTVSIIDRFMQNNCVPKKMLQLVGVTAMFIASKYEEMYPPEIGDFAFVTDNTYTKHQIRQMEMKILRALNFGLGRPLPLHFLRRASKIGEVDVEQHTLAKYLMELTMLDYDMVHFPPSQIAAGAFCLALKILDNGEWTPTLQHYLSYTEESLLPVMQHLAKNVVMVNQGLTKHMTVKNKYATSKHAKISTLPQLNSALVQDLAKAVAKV
In short: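 Z'-LYTE FRET format: 0.2 μg/ml enzyme with 2 μM Ser/Thr peptide 12 and 10 μM ATP in 50 mM Hepes pH 7.5, 10 mM MgCl2, 1 mM EGTA, 0.01% Brij-35, 60 min at room temperature. Protease development 60 min; coumarin/fluorescein emission ratio (460/538 nm, excitation 390 nm) reports phosphorylation.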

IC50 (PC-3) [µM] | IC50 (HCT-116) [µM] | IC50 (PLK4 (h)) | IC50 (U87MG) [µM] | IC50 (GSK3β (h)) | IC50 (H1299) [µM] | IC50 (A2780) [µM] | IC50 (AuroraB (h)) | IC50 (CDK1/CyclinB (h)) [µM] | pIC50 HCT-116 (HCT-116) | pIC50 A2780 (A2780) | Compound | IC50 (MDA/MB231) [µM] | pIC50 PC-3 (PC-3) | CDK1 pIC50 (CDK1/CyclinB (h)) | PLK4 pIC50 (PLK4 (h)) | pIC50 U87MG (U87MG) | GSK3B pIC50 (GSK3β (h)) | pIC50 H1299 (H1299) | pIC50 MDA/MB231 (MDA/MB231) | AuroraB pIC50 (AuroraB (h))
> 10 | > 10 | 2.63 µM | > 10 | 3.63 µM | > 10 | > 10 | > 10 µM | > 10 | – | – | COc1ccc2cc1OCCCC(=O)NCCN(C)c1ncnc3c1/C(=C/N2)C(=O)N3 [Compound 38] | > 10 | – | – | – | – | – | – | – | –
> 10 | 5.5 | 2.4 µM | > 10 | 0.933 µM and 1.12 µM | > 10 | 5.89 | 6.76 µM and 3.24 µM | – | 5.06 | 5.13 | CN1CCNC(=O)COc2cccc(c2)N/C=C2\C(=O)Nc3ncnc(c32)NCC1 [Compound 167] | > 10 | – | – | – | – | – | – | – | –
> 10 | > 10 | 2.82 µM | > 10 | 0.661 µM | > 10 | > 10 | > 10 µM | > 10 | – | – | CN1CC(=O)N(C)CCCCNc2ncnc3c2/C(=C/Nc2cccc(c2)C1)C(=O)N3 [Compound 154] | > 10 | – | – | – | – | – | – | – | –
> 10 | > 10 | 2.29 µM | > 10 | 4.79 µM | > 10 | > 10 | 8.71 µM | > 10 | – | – | COc1ccc2cc1OCCCCCCC(=O)NCCN(C)c1ncnc3c1/C(=C/N2)C(=O)N3 [Compound 47] | > 10 | – | – | – | – | – | – | – | –
1.32 | 0.229 | 2.75 µM | 1.23 | 3.55 µM | 0.55 | 0.166 | 0.331 µM | – | – | – | CN1CCCNc2ncnc3c2/C(=C/Nc2ccc(NC(=O)Nc4ccccc4)c(c2)OCCCC1=O)C(=O)N3 [Compound 158] | 4.37 | – | – | – | – | – | – | – | –
> 10 | > 10 | 0.468 µM | > 10 | 9.55 µM | > 10 | > 10 | 6.76 µM | – | – | – | CN1CCCNc2ncnc3c2/C(=C/Nc2cccc(c2)OCC(=O)N[C@H](Cc2ccccc2)C1)C(=O)N3 [Compound 176] | > 10 | – | – | – | – | – | – | – | –
1.58 | 0.17 | 1.05 µM | 2.04 | 2 µM | 0.275 | 0.0724 | 0.275 µM | – | – | – | CN1CCCNc2ncnc3c2/C(=C/Nc2ccc(NC(=O)NC4CCCCC4)c(c2)OCCCC1=O)C(=O)N3 [Compound 107] | 2.34 | – | – | – | – | – | – | – | –
> 10 | > 10 | 0.417 µM | > 10 | 2.04 µM | > 10 | > 10 | > 10 µM | – | – | – | C[C@@H]1CN(C)CCCNc2ncnc3c2/C(=C/Nc2cccc(c2)OCC(=O)N1)C(=O)N3 [Compound 99] | > 10 | – | – | – | – | – | – | – | –
> 10 | 0.603 | 0.224 µM | > 10 | 0.141 µM | > 10 | 0.871 | 0.0912 µM | – | – | – | CN1CCCNc2ncnc3c2/C(=C/Nc2ccc(NS(=O)(=O)c4ccccc4)c(c2)OCCCC1=O)C(=O)N3 [Compound 109] | > 10 | – | – | – | – | – | – | – | –
> 10 | > 10 | – | > 10 | > 10 µM | > 10 | > 10 | 1.38 µM | > 10 | – | – | CN1CCCNc2ncnc3c2/C(=C/Nc2cc(cc(C(F)(F)F)c2)OCCCC1=O)C(=O)N3 [Compound 113] | > 10 | – | – | – | – | – | – | – | –
5.01 | 1.66 | 0.407 µM | 8.71 | 0.912 µM | 2.63 | 1.17 | 0.537 µM | – | – | – | CN1CCCNc2ncnc3c2/C(=C/Nc2ccc(NCc4ccccc4)c(c2)OCCCC1=O)C(=O)N3 [Compound 110] | > 10 | – | – | – | – | – | – | – | –
> 10 | > 10 | 0.891 µM | > 10 | 1.55 µM | > 10 | > 10 | 0.617 µM | – | – | – | CN1CCCNc2ncnc3c2/C(=C/Nc2ccc(NC(=O)c4ccccc4)c(c2)OCCCC1=O)C(=O)N3 [Compound 108] | 8.32 | – | – | – | – | – | – | – | –
> 10 | > 10 | 2.63 µM | > 10 | 2.51 µM | > 10 | > 10 | – | 4.27 | – | – | CN1CCNC(=O)CCCCOc2cccc(c2)N/C=C2\C(=O)Nc3ncnc1c32 [Compound 43] | > 10 | – | – | – | – | – | – | – | –
> 10 | > 10 | 1.82 µM and 2 µM | 7.41 | 1.86 µM and 3.24 µM | 8.32 | 9.12 | 3.55 µM | – | 5.07 | 5.08 | CN1CCNc2ncnc3c2/C(=C/Nc2cccc(c2)OCC(=O)N[C@H](Cc2ccccc2)C1)C(=O)N3 [Compound 169] | > 10 | – | – | – | <5 | – | <5 | – | –
> 10 | > 10 | 4.37 µM | > 10 | 2.88 µM | > 10 | > 10 | > 10 µM | – | – | – | CN1CCNC(=O)CCCOc2cccc(c2)N/C=C2\C(=O)Nc3ncnc(c32)NCC1 [Compound 159] | > 10 | – | – | – | – | – | – | – | –

Compound | IC50 (PC-3) [µM] | IC50 (HCT-116) [µM] | IC50 (PLK4 (h)) | IC50 (U87MG) [µM] | IC50 (GSK3β (h)) | IC50 (H1299) [µM] | IC50 (A2780) [µM] | IC50 (AuroraB (h)) | IC50 (CDK1/CyclinB (h)) [µM] | pIC50 HCT-116 (HCT-116) | pIC50 A2780 (A2780) | IC50 (MDA/MB231) [µM] | pIC50 PC-3 (PC-3) | CDK1 pIC50 (CDK1/CyclinB (h)) | PLK4 pIC50 (PLK4 (h)) | pIC50 U87MG (U87MG) | GSK3B pIC50 (GSK3β (h)) | pIC50 H1299 (H1299) | pIC50 MDA/MB231 (MDA/MB231) | AuroraB pIC50 (AuroraB (h))
CN1CCNc2ncnc3c2/C(=C/Nc2cccc(c2)OCC(=O)N2CCC[C@@H]2C1)C(=O)N3 [Compound 168] | > 10 | > 10 | > 10 µM and 6.17 µM | > 10 | 7.59 µM and 5.75 µM | > 10 | > 10 | > 10 µM | – | – | – | > 10 | – | – | – | – | – | – | – | –
CN1CCN(c2ccc3cc2OCCCCCC(=O)N(C)CCCNc2ncnc4c2C(=CN3)C(=O)N4)CC1 (mixture of isomers) [Compound 138] | – | – | – | – | – | – | – | – | – | 5.52 | 5.16 | – | <5 | 5.8 | 6.74 | 6.05 | 6.75 | <5 | <5 | <5
CN1CCNc2ncnc3c2/C(=C/Nc2ccc(Cl)c(c2)OCC(=O)N2CCC[C@@H]2C1)C(=O)N3 [Compound 192] | > 10 | 2.19 | > 10 µM | > 10 | 5.01 µM | 2.51 | 3.09 | > 10 µM | – | – | – | > 10 | – | – | – | – | – | – | – | –
CN1CCCNc2ncnc3c2/C(=C/Nc2cccc(c2)OCC(=O)N2CCC[C@@H]2C1)C(=O)N3 [Compound 170] | > 10 | > 10 | 7.41 µM | > 10 | 8.91 µM | > 10 | > 10 | > 10 µM | – | – | – | > 10 | – | – | – | – | – | – | – | –

— patent US8338422B2, “Indolin-2-ones and aza-indolin-2-ones” (Janssen Pharmaceutica NV, priority 2007, dated 2012)
